{"source": "patent US20220202912A1", "about": "“Polypeptides in Preparation of Drugs for Treatment or Prevention of Rheumatoid Arthritis” (priority 2011, published 2022)", "key": {"AIA rat models": {"tested_on": "AIA rat models", "experiment": "adjuvant-induced arthritis (AIA) rat models", "format": "in vivo, SD rats", "conditions": "for clinical scoring / swelling of left paw / swelling of right paw: 5 times"}, "IL-1β": {"tested_on": "IL-1β", "experiment": "IL-1β production by mouse peritoneal macrophages (LPS, ELISA)", "format": "cell-based, C57BL/6 mice", "conditions": "LPS 5 μg/mL, 48 h", "procedure": "In the test, mice are divided into […], namely a blank control group, a lipopolysaccharide (LPS) model group, a dexamethasone group, and mPEG-SC20k-HM-3 groups at different doses (0.56, 1.12, 2.25, 4.50, 9.00 μmol/L).\n(1) IL-1 production: mice are intraperitoneally injected with 1 mL of broth medium (containing 6% of starch). After three days, mouse peritoneal macrophages are taken aseptically and washed twice with RPMI 1640 medium, and the cell concentration is adjusted to 2×10^6 cells/mL. The cells are injected into a 24-well culture plate, 1 mL per well, and the cells are incubated in a cell incubator for 3 h, and vibrated once every 30 min to make the cells fully adhere. Then the cells are washed twice with culture solution to remove non-adherent cells, are cultured continuously for 48 h after administration, and are centrifuged at 1000 r for 15 min. The supernatant is collected as a sample with IL-1β to be tested. (2) Determination of IL-1 content: various solutions are prepared; tested samples and standard substances with different concentrations (100 μL/well) are added into the corresponding wells, reaction wells are sealed with plate-sealing adhesive tape, and incubation is performed at 37° C. for 90 min; the plate is washed four times; biotinylated antibody working solution (100 μL/well) is added, the reaction wells are sealed with plate-sealing adhesive tape, and incubation is performed at 37° C. for 60 min; the plate is washed four times; enzyme conjugate working solution (100 μL/well) is added, the reaction wells are sealed with plate-sealing adhesive tape, and incubation is performed at 37° C. for 30 min; the plate is washed four times; chromogenic reagent (100 μL/well) is added, and incubation is performed at 37° C. for 10-20 min in the absence of light; stop solution (100 μL/well) is added, and the OD 450 nm absorbance is measured immediately after uniform mixing (within 5 min)."}, "TLR-4": {"tested_on": "TLR-4", "experiment": "Western blot of TLR-4 protein in LPS-induced rat synovial cells", "format": "cell-based", "procedure": "3.1 U937 cells are added to a 6-well plate (1.5×10^5 cells/mL), PMA (25 ng/mL) is used for induction for 48 h, and the cells adhere and differentiate into macrophages. Positive drug Adalimumab (25 μg/mL, 50 μg/mL, 100 μg/mL, 200 μg/mL, 400 μg/mL), Avastin (25 μg/mL, 50 μg/mL) are added, the final concentrations of mPEG-SC20k-HM-3 are 2.25, 4.5, 9.0, 13.5, 18.0, 36 μmol/L, and isovolumetric PBS is added to the blank group and the model group. The cells are incubated in a CO2 incubator at 37° C. for 24 or 48 h. Rat synovial cells are induced with LPS for 24 h and then mPEG-SC20k-HM-3 is administrated to final concentrations of 2.25, 4.5, 9.0, 13.5, 18.0 μmol/L, and the cells are incubated in a CO2 incubator at 37° C. for 48 h.\n3.3 A protein extract solution is added at 20 μL/1×10^5 cells, and the cells are pipetted and dispersed, and stand at 4° C. for 30 min to lyse the cells.\n3.4 1/4 volume of 5×protein loading buffer is added, and boiling water bath is performed for 5-10 min.\n3.5 20 μL of protein sample is taken and 10% SDS-PAGE electrophoresis is performed.\n3.6 The protein on the gel is transferred to the PVDF membrane by using a wetting transfer method with a constant current of 100 mA for 1-2.5 h.\n3.7 The PVDF membrane is blocked with a blocking solution at room temperature for 2 h.\n3.8 The membrane is washed for 3 times with PBST, 5 min each time. […]"}, "[1]": {"tested_on": "tumor in BALB/c nude mice", "experiment": "in vivo pharmacodynamics (antitumor) of PEG-modified HM-3 in BALB/c nude mice", "from_the_text": "Four different types of mPEG-ALD and mPEG-SC with different molecular weights are selected to modify the polypeptide […](named HM-3), i.e., mPEG-ALD5k, mPEG-ALD10k, mPEG-SC10k, mPEG-SC20k, and modification reaction conditions are explored and optimized."}, "[2]": {"conditions": "high dose 40 mg/kg once the other day"}, "[3]": {"conditions": "low dose 10 mg/kg once the other day"}, "[4]": {"conditions": "medium dose 20 mg/kg once the other day"}}, "note": "Where no end group is shown, it is not given here."}
{"substance": "mPEG-SC20k-Ile-Val-Arg-Arg-Ala-Asp-Arg-Ala-Ala-Val-Pro-Gly-Gly-Gly-Gly-Arg-Gly-Asp ({mPEG‑SC 20k}-IVRRADRAAVPGGGGRGD) [polypeptide III]", "values": [{"measurement": "clinical scoring", "setting": "AIA rat models; [2]", "result": "5.29 ± 3.90"}, {"measurement": "swelling of left paw", "setting": "AIA rat models; [2]", "result": "4.40 ± 0.91", "unit": "mm"}, {"measurement": "swelling of right paw", "setting": "AIA rat models; [2]", "result": "1.05 ± 1.31", "unit": "mm"}, {"measurement": "clinical scoring", "setting": "AIA rat models; [3]", "result": "5.43 ± 2.15"}, {"measurement": "swelling of left paw", "setting": "AIA rat models; [3]", "result": "4.40 ± 0.91", "unit": "mm"}, {"measurement": "swelling of right paw", "setting": "AIA rat models; [3]", "result": "0.76 ± 1.21", "unit": "mm"}, {"measurement": "clinical scoring", "setting": "AIA rat models; [4]", "result": "5.71 ± 2.36"}, {"measurement": "swelling of left paw", "setting": "AIA rat models; [4]", "result": "4.48 ± 1.72", "unit": "mm"}, {"measurement": "swelling of right paw", "setting": "AIA rat models; [4]", "result": "1.28 ± 1.27", "unit": "mm"}, {"measurement": "therapeutic effect on adjuvant-induced arthritis in rats (conclusion)", "setting": "AIA rat models; rat, in vivo", "result": "CONCLUSION: polypeptide III has therapeutic effect on adjuvant-induced arthritis, and its effect is higher than that of polypeptide. I."}, {"measurement": "IL-1β content", "setting": "IL-1β; 0.56 μmoL/L", "result": "89.77 ± 7.22", "unit": "pg/mL"}, {"measurement": "Inhibition rate", "setting": "IL-1β; 0.56 μmoL/L", "result": 90.93, "unit": "%"}, {"measurement": "IL-1β content", "setting": "IL-1β; 1.12 μmoL/L", "result": "35.17 ± 17.71", "unit": "pg/mL"}, {"measurement": "Inhibition rate", "setting": "IL-1β; 1.12 μmoL/L", "result": 96.45, "unit": "%"}, {"measurement": "IL-1β content", "setting": "IL-1β; 2.25 μmoL/L", "result": "43.78 ± 10.16", "unit": "pg/mL"}, {"measurement": "Inhibition rate", "setting": "IL-1β; 2.25 μmoL/L", "result": 95.58, "unit": "%"}, {"measurement": "IL-1β content", "setting": "IL-1β; 4.50 μmoL/L", "result": "32.04 ± 6.52", "unit": "pg/mL"}, {"measurement": "Inhibition rate", "setting": "IL-1β; 4.50 μmoL/L", "result": 96.76, "unit": "%"}, {"measurement": "IL-1β content", "setting": "IL-1β; 9.00 μmoL/L", "result": "104.83 ± 2.44", "unit": "pg/mL"}, {"measurement": "Inhibition rate", "setting": "IL-1β; 9.00 μmoL/L", "result": 89.41, "unit": "%"}, {"measurement": "dose with the best inhibitory effect on the expression of TLR-4 protein", "setting": "TLR-4", "result": 13.5, "unit": "µM"}, {"measurement": "expression of TLR-4 protein in rat synovial cells", "setting": "TLR-4; with the increase of dosage", "result": "down-regulation"}, {"measurement": "antitumor effect in vivo", "setting": "[1]; BALB/c nude mice", "result": 50.23, "unit": "%"}, {"measurement": "toxicity at an effective dose in vivo", "setting": "[1]; body weight of nude mice basically stable", "result": "very low toxicity or no toxicity"}, {"measurement": "elimination half life in vivo", "setting": "[1]; compared with HM-3", "result": "greatly improved"}]}
